The values below come from the OligoGym collection.

Where “and” joins values, the source holds several entries; their conditions need not be identical. Equal values may be shown once. HELM strings list units from the 5' end as sugar, base in round brackets, then linkage (d deoxyribose, r ribose, m 2'-O-methyl, p phosphodiester). Strings are as the collection lists them, not checked against the first reports. ss, as = sense and antisense strand; [una] = unlocked nucleic acid; [hna] = hexitol nucleic acid; [fl2r] = 2'-fluoro
Also: test system not given here.

The conditions of this data set: siRNA.
Substance “RNA1{r(A)p.r(A)p.r(C)p.r(A)p.r(G)p.r(C)p.r(C)p.r(U)p.r(U)p.r(A)p.r(C)p.r(C)p.r(C)p.r(C)p.r(G)p.r(A)p.r(U)p.r(U)p.r(C)p.r(T)p.r(T)}|RNA2{r(G)p.r(A)p.r(A)p.r(U)p.r(C)p.r(G)p.r(G)p.r(G)p.r(G)p.m(U)p.r(A)p.r(A)p.r(G)p.r(G)p.r(C)p.r(U)p.r(G)p.r(U)p.r(U)p.r(T)p.r(T)}$$$RNA1{StrandType:ss}|RNA2{StrandType:as}$” displayed a target mRNA knockdown of 69%.

Consider “RNA1{r(G)p.r(U)p.r(A)p.r(U)p.r(G)p.r(A)p.r(C)p.r(C)p.r(G)p.r(A)p.r(C)p.r(U)p.r(A)p.r(C)p.r(G)p.r(C)p.r(G)p.r(U)p.r(A)p.r(T)p.r(T)}|RNA2{r(U)p.[una](U)p.r(C)p.r(A)p.r(G)p.r(U)p.r(G)p.r(U)p.r(G)p.r(A)p.r(U)p.r(G)p.r(A)p.r(C)p.r(A)p.r(C)p.r(U)p.r(U)p.r(G)p.r(T)p.r(T)}$$$RNA1{StrandType:ss}|RNA2{StrandType:as}$”, for which the target mRNA knockdown was 0% and 2%.

The substance “RNA1{r(A)p.r(C)p.r(G)p.r(G)p.r(C)p.r(U)p.r(C)p.r(G)p.r(C)p.[fl2r](U)p.r(A)p.r(C)p.r(C)p.r(C)p.r(U)p.r(C)p.r(G)p.r(A)p.r(C)p.r(T)p.r(T)}|RNA2{r(G)p.r(U)p.r(C)p.r(G)p.r(A)p.r(G)p.r(G)p.r(G)p.[fl2r](U)p.r(A)p.r(G)p.r(C)p.r(G)p.r(A)p.r(G)p.r(C)p.r(C)p.r(G)p.r(U)p.r(T)p.r(T)}$$$RNA1{StrandType:ss}|RNA2{StrandType:as}$” had a target mRNA knockdown of 78%.

For the substance “RNA1{r(A)p.r(G)p.r(A)p.r(G)p.r(A)p.r(A)p.r(G)p.r(G)p.r(G)p.r(C)p.r(G)p.r(U)p.r(C)p.r(U)p.r(C)p.r(U)p.[fl2r](A)p.r(C)p.r(A)p.r(T)p.r(T)}|RNA2{r(U)p.r(G)p.[fl2r](U)p.r(A)p.r(G)p.r(A)p.r(G)p.r(A)p.r(C)p.r(G)p.r(C)p.r(C)p.r(C)p.r(U)p.r(U)p.r(C)p.r(U)p.r(C)p.r(U)p.r(T)p.r(T)}$$$RNA1{StrandType:ss}|RNA2{StrandType:as}$”, the target mRNA knockdown came out at 69%.

“RNA1{[hna](G)p.[hna](A)p.[hna](C)p.r(G)p.r(U)p.r(A)p.r(A)p.r(A)p.r(C)p.r(G)p.r(G)p.r(C)p.r(C)p.r(A)p.r(C)p.r(A)p.r(A)p.[hna](G)p.[hna](U)p.[hna](U)p.d(T)}|RNA2{r(A)p.[hna](C)p.r(U)p.r(U)p.r(G)p.r(U)p.r(G)p.r(G)p.r(C)p.r(C)p.r(G)p.r(U)p.r(U)p.r(U)p.r(A)p.r(C)p.r(G)p.[hna](U)p.[hna](C)p.[hna](G)p.d(T)}$$$RNA1{StrandType:ss}|RNA2{StrandType:as}$”: the target mRNA knockdown turned out to be 77.4%.

For the substance “RNA1{r(U)p.[fl2r](U)p.r(A)p.r(C)p.r(C)p.r(C)p.r(C)p.r(G)p.r(A)p.r(U)p.r(U)p.r(C)p.r(A)p.r(G)p.r(C)p.r(C)p.r(U)p.r(C)p.r(U)p.r(T)p.r(T)}|RNA2{r(A)p.r(G)p.r(A)p.r(G)p.r(G)p.r(C)p.r(U)p.r(G)p.r(A)p.r(A)p.r(U)p.r(C)p.r(G)p.r(G)p.r(G)p.r(G)p.r(U)p.[fl2r](A)p.r(A)p.r(T)p.r(T)}$$$RNA1{StrandType:ss}|RNA2{StrandType:as}$”, the target mRNA knockdown turned out to be 69%.

Consider “RNA1{[fl2r](G)p.m(A)p.[fl2r](C)p.m(G)p.[fl2r](U)p.m(A)p.[fl2r](A)p.m(A)p.[fl2r](C)p.m(G)p.[fl2r](G)p.m(C)p.[fl2r](C)p.m(A)p.[fl2r](C)p.m(A)p.[fl2r](A)p.m(G)p.[fl2r](U)p.m(U)p.[fl2r](C)}|RNA2{r(A)p.m(C)p.r(U)p.r(U)p.r(G)p.r(U)p.r(G)p.r(G)p.r(C)p.r(C)p.r(G)p.r(U)p.r(U)p.r(U)p.r(A)p.r(C)p.r(G)p.r(U)p.r(C)p.r(G)p.r(C)}$$$RNA1{StrandType:ss}|RNA2{StrandType:as}$”, for which the target mRNA knockdown came out at 46.2%.
